Experimental data from patent publication US10195195B2, “Selective histamine H4 receptor antagonists for the treatment of vestibular disorders” (INSERM (Institut National de la Sante de la Recherche …, priority 2008, dated 2019).
Entries after “also recorded” stand apart in the source; their conditions may differ. Read-outs that look alike come from different tables or passages of the source.

Columns and labels:
[1] = tested on: vestibular ganglion neurons; experiment: Patch-clamp (current-clamp) recording of depolarization-induced firing volley and membrane potential in cultured vestibular ganglion neurons; assay type: cell-based, Wistar rats; conditions: for IC50: cultured rat vestibular neurons; for inhibition at 0.1 µM: 100 nM (0.1 μM); for variation of membrane potentials (qualitative): FIG. 4, high concentrations; for reversibility of the firing inhibition during rinse with control medium: perfusion of control medium after drug; for depolarization of the neurons: 5 mM
Procedure: Cell culture: Vestibular ganglion neurons were explanted aseptically from 2 to 6 days-old Wistar rats (Centre d'Elevage Janvier, Le Genest-Saint-Isle, France). All procedures were carried out in accordance to the French/European Communities Council Directive 86/609/EEC. The brainstem was hemi-sectioned and the eighth nerve was followed up to the level of the otocyst and cut just rostral to it.
The vestibular ganglia were excised, placed in Leibovitz medium (L15, Invitrogen, Cergy Pontoise, France), and dissociated by enzymatically (collagenase 0.75 mg/ml, dispase 1 mg/ml and dnase 0.75 mg/ml, 15 min at 25° C.). Enzymes were washed with Tyrode solution without Ca^2+ and Mg^2+, and the ganglion neurons were gently dissociated in culture medium with a pipette. The neurons were plated onto culture dishes previously coated with 5 μg/ml poly-L-ornithine, 10 μg/ml laminin and subsequently filled with 0.5 ml of a 1:1 mixture of Dulbecco's modified eagle medium and Ham's F-12 medium (Invitrogen) supplemented with 2% N2 nutrient glucose (5 g/l), glutamine (1.5 mM), sodium bicarbonate (1.1 g/l), HEPES buffer (15 mM, pH 7.4), AraC 2 μM, brain-derived neurotrophic factor 10 μg/ml and 1% penicillin/streptomycin. The low density cultures were then maintained at 37° C. in 5% CO2 for 7 to 8 days prior patch-clamp experiments.
Patch-clamp recordings: Whole-cell (current-clamp configuration) recording of responses were obtained using an Axopatch 200B amplifier (Axon Instruments; Molecular Devices Corp., Sunnyvale, Calif., USA). The extracellular solution contained (in mM): NaCl 135, HEPES 10, glucose 10, MgCl2 1, KCl 5, and CaCl2 4, pH 7.35 (with NaOH). Recording pipettes (2-3 MΩ) were drawn from microhematocrit tubes (Modulohm I/S Herlev, Denmark) and filled with the following solution (in mM): KCl 135, HEPES 10,glucose 10, NaCl5, EGTA 5, Mg-ATP3, GTP-Na 1, pH 7.35 (with KOH). The osmolarity of all solutions was set to 300 mOsm/I^−1. Experimental parameters and data acquisition were controlled with a PC computer and a Tecmar Labmaster analogue interface (Axon instruments, CA). Voltage transients were recorded from neurons presenting resting potentials lying between −45 and −65 mV. Trains of action potentials (APs) were elicited using 1 s, 200 pA depolarizing pulses applied every 6.5 s. Current signals were filtered at 10 KHz, digitized and stored using pCLAMP software (v 10.2, Axon instruments).
Drug application : The control and test solutions were applied using a multiple capillary perfusion system (flow rate 500 μl/min). After each application of the tested drug, the cells were washed with control buffer.
Data analysis and statistical methods : The results are expressed as means±S.E.M. The number of sample size (n) given is the number of neurons tested. Variations of the membrane potential and the number of APs were analysed using pCLAMP software (v10.2, Axon instruments). Drug concentration-effect relationships were fitted with a Hill equation of the form I(x)=A*xn/(IC50n+xn).

[2] = target: T1, human H3 receptor (Homo sapiens, UniProt Q9Y5N1); conditions: radioligand, transfected cell membranes; cited from earlier work
T1 construct: expressed in transfected cells; host or cells: SK-N-MC or HEK293 T

[3] = tested on: peripheral vestibular receptors isolated from axolotl; conditions: cited from earlier work
[4] = Neuron, dose-response fitted with Hill equation, read-out: IC50 of inhibition of the firing volley induced by standard depolarization
[5] = Rattus norvegicus, Neuron, tonic discharge

T1 sequence (Q9Y5N1 whole entry): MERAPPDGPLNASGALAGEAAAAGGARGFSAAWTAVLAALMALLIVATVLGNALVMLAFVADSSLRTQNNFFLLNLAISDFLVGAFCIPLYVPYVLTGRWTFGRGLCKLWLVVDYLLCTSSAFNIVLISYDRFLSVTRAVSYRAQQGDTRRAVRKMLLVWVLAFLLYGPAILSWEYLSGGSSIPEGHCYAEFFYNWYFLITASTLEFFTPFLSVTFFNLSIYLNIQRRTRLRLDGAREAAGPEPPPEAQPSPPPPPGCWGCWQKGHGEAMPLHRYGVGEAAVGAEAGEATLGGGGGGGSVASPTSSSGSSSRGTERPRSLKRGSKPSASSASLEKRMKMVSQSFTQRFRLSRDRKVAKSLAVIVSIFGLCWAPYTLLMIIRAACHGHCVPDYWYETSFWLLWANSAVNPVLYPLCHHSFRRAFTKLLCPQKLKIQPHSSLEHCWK

Molecule `CN1CCN(C(=O)c2cc3cc(Cl)ccc3[nH]2)CC1` [JNJ 7777120, 1-[(5-chloro-1H-indol-2-yl)carbonyl]-4-methylpiperazine] has an IC50 [1, 4] of 10 µM, an inhibition at 0.1 µM [1, 5] of 3% and an inhibition at 1 µM [1, 5] of 29%. The inhibition at 10 µM [1, 5] was 41% and the membrane depolarisation ([1]; high concentration application (1 mM)) was “did not induce membrane depolarisation”.

In the case of `CN1CCN(C(=O)c2nc3cc(Cl)ccc3[nH]2)CC1` [VUF 6002, 1-[(5-chloro-1H-benzimidazol-2-yl)carbonyl]-4-methylpiperazine], the “action potentials intrinsic properties (spike amplitude, time to peak, rise and decay time constants)” value [1] is reported as “not affected”, the membrane hyperpolarization ([1]; 100 μM) is reported as “about −3 mV” and the “inhibition of the firing” value ([1]; 100 μM, tonic discharge) is reported as 90%. The “effect on firing, phasic discharge pattern” value ([1]; 1 mM, neurons with phasic discharge, n=6) was “completely abolished the firing”, the “variation of membrane potentials (qualitative)” value (shortened to “variation of membrane potentials”) [1] was “did not induce membrane variations” and the IC50 [1, 4] was 5.8 µM. It also gave an inhibition at 0.1 µM [1, 5] of 20%, an inhibition at 1 µM [1, 5] of 37% and an inhibition at 10 µM [1, 5] of 55%. The inhibition at 100 µM ([1]; Rattus norvegicus, Neuron, 100 μM, tonic discharge) was 91%, the “concentration of maximum inhibition of the firing” value ([1]; dose-response between 1 nM and 1 mM) was “around 100 μM” and the “reversibility of the firing inhibition during rinse with control medium” value [1] was “reversed during rinse with control medium; also recorded: totally reversed”.

In the case of `CNCCc1cnc[nH]1` [[^3H]N-a-methyl histamine], the Kd [2] is given as 0.001 µM.

With `CNCCc1ccccn1.Cl.Cl` [betahistine, betahistine dihydrochloride] the “effect on membrane potential” value ([1]; 2 mM application) was “not affected”, the “depolarization of the neurons” value ([1]; dihydrochloride) was “about 15 mV” and the “depolarization of the neurons” value ([1]; listed as BH, dihydrochloride) was 14.3±4.7 mV. The “variation of membrane potentials” value ([1]; dihydrochloride) was “pronounced depolarisation of the neurons”, the “variation of membrane potentials” value ([1]; listed as betahistidine, dihydrochloride) was “strong depolarisations at high concentrations” and the IC50 ([1]; dose-response relationship, read-out: IC50 of inhibition of the discharge volley) was 2200 µM. For the same molecule, the “reversibility of the firing inhibition during rinse with control medium” value ([1]; dihydrochloride) was “rapidly reversed during rinse with control medium”, the “reversibility of the firing inhibition during rinse with control medium” value ([1]; listed as BH, dihydrochloride) was “rapidly abolished” and the “concentration of maximum inhibition of the discharge volley” value ([1]; standard depolarization stimulation) was “around 10 mM”. The “concentration of maximum effect on afferent discharge” value [3] was “around 10 mM” and the IC50 ([3]; read-out: IC50 of inhibition of the afferent discharge) was 800 µM.

With `O=C(O)/C=C\C(=O)O.S=C(NC1CCCCC1)N1CCC(c2c[nH]cn2)CC1` [thioperamide, N-cyclohexyl-4-(1H-imidazol-4-yl)-1-piperidinecarbothioamide maleate] the “membrane depolarisation at low concentration” value ([1]; 0.01 to 10 μM) was “without depolarizing the neurons”, the “variation of membrane potentials” value ([1]; maleate) was “strong depolarisations at high concentrations; also recorded: strong membrane depolarisations; also recorded: pronounced depolarisation of the neurons” and the IC50 [1, 4] was 100 µM. For the same molecule, the inhibition at 0.1 µM [1, 5] was 10%, the inhibition at 10 µM [1, 5] was 24% and the inhibition at 500 µM ([1]; Rattus norvegicus, Neuron, 500 μM, read-out: inhibition of the firing (blocked activity)) was 87%. For the same molecule, the “reversibility of the firing inhibition during rinse with control medium” value [1] was “only slightly reversible”.
